US20260102387A1, “IMMUNOSUPPRESSIVE COMPOUNDS” (UNIVERSITÄT BASEL, priority 2022, published 2026)

Columns and labels:
BRD3 BD2 = biological target: T1, BRD3 BD2 (Homo sapiens, UniProt Q15059); assay: Bromoscan (Eurofins) binding: BRD3 BD2
T1 construct: T7 phage display (bromodomain fused to phage); purchased Eurofins (bromoscan service); host or cells: E. coli host derived from BL21, T7 phage
Protocol: (§1) Following the initial data from TPP, to further confirm the interaction of compound with BRD3, an in-vitro assay system named bromoscan (Eurofins) was employed to analyse the affinity of the (4S,7R)-configurated compound 12e against the two bromodomains of BRD3.
(§2) T7 phage strains displaying bromodomains were grown in 24-well blocks in an E. coli host derived from the BL21 strain. E. coli were grown to log-phase and infected with T7 phage from a frozen stock (multiplicity of infection=0.4) and incubated with shaking at 32° C. until lysis (90-150 minutes). The lysates were centrifuged (5,000×g) and filtered (0.2 μm) to remove cell debris. Streptavidin-coated magnetic beads were treated with biotinylated small molecule or acetylated peptide ligands for 30 minutes at room temperature to generate affinity resins for bromodomain assays. The liganded beads were blocked with excess biotin and washed with blocking buffer (SeaBlock (Pierce), 1% BSA, 0.05% Tween 20, 1 mM DTT) to remove unbound ligand and to reduce non-specific phage binding. […] Test compounds were prepared as 1000× stocks in 100% DMSO. Kds were determined using an 11-point 3-fold compound dilution series with one DMSO control point. All compounds for Kd measurements are distributed by acoustic transfer (non-contact dispensing) in 100% DMSO. The compounds were then diluted directly into the assays such that the final concentration of DMSO was 0.09%. All reactions performed in polypropylene 384-well plates. Each was a final volume of 0.02 ml. The assay plates were incubated at room temperature with shaking for 1 hour and the affinity beads were washed with wash buffer (1×PBS, 0.05% Tween 20). The beads were then resuspended in elution buffer (1×PBS, 0.05% Tween 20, 2 μM non-biotinylated affinity ligand) and incubated at room temperature with shaking for 30 minutes. The bromodomain concentration in the eluates was measured by qPCR. The bromoscan analysis was done at Eurofins (FIG. 15).

BRD3 BD1 = biological target: T2, BRD3 BD1 (Homo sapiens, UniProt Q15059); assay: Bromoscan (Eurofins) binding: BRD3 BD1
T2 construct: T7 phage display (bromodomain fused to phage); purchased Eurofins (bromoscan service); host or cells: E. coli host derived from BL21, T7 phage
T2 sequence (Q15059 34-140 limits assumed): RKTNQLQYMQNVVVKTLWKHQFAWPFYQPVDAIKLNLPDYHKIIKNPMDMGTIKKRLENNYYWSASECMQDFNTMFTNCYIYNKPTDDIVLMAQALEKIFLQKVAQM
Protocol: as §1
as §2, with “The compounds were then diluted directly into the assays such that the final concentration of DMSO was 0.09%. All reactions performed in polypropylene 384-well plates. Each was a final volume of 0.02 ml. The assay plates were incubated at room temperature with shaking for 1 hour and the affinity beads were washed with wash buffer (1×PBS, 0.05% Tween 20). The beads were then resuspended in elution buffer (1×PBS, 0.05% Tween 20, 2 μM non-biotinylated affinity ligand) and incubated at room temperature with shaking for 30 minutes.” left out, “The bromoscan analysis was done at Eurofins (FIG. 15).” left out

[1] = system: imiquimod-induced psoriasis; assay: Imiquimod-induced mouse model for psoriasis; assay type: in vivo, mice (Balb/c); details: 50 mg/kg body weight, twice daily, topical route, day 4
Protocol: Wild type mice (Balb/c strain, 8-12 weeks), were age and sex matched. The dorsal skin was shaved with a trimmer on an area of ˜2 cm^2 and subjected to topical application of 5% imiquimod cream (Aldara) starting from day 1 and continued for up to 7 days in the morning. For compound administration, mice were applied topically with the compound, twice a day starting 48 hours before the first Imiquimod application and all along of the experiment up to day 7. In the morning, compound was applied 2 h prior to the imiquimod application (FIG. 12A). Mice were scored every day for the inflammatory lesion and general health status as follows: […]

RBL cells = assay: Cell viability by live-dead staining (cytotoxicity), flow cytometry; assay type: cell-based, Rat; details: Rattus norvegicus, RBL, cell viability via live/dead staining, 48-65 h, read-out: EC50 Toxicity
Procedure, shortened: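 RBL cells with coronin 1 promoter-GFP, mixed 1:1 with CMV promoter-RFP RBL cells, exposed to compound 48-65 h. Flow cytometry read RFP fluorescence for non-specific promoter inhibition and live-dead staining for cytotoxicity. EC50 values derived; cycloheximide positive control, DMSO negative.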

coronin 1 promoter = assay: EC50 analysis for coronin 1 promoter driven GFP inhibition by flow cytometry in RBL cells; assay type: cell-based; details: for EC50: RBL, RBL cells, 48-65 h, flow cytometry
Procedure, shortened: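 RBL cells carrying coronin 1 promoter–GFP, mixed with CMV promoter–RFP cells, exposed to compounds 48–65 h and analyzed by flow cytometry with live/dead staining. EC50 derived from GFP inhibition, with RFP and viability as nonspecific and toxicity counter-reads; cycloheximide and DMSO as controls, relative potency normalized to a reference compound.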

CMV promoter = assay: EC50 analysis for CMV promoter driven RFP inhibition (non-specific activity) by flow cytometry in RBL cells; assay type: cell-based, cytomegalovirus; details: 48-65 h, read-out: EC50 RFP alteration
Protocol: RBL cells expressing GFP under coronin 1 promoter and optionally with RBL cells expressing RFP under CMV promoter were mixed in equal numbers and incubated with the compounds at indicated concentrations for 48-65 h and analyzed by flow cytometry for alteration in coronin 1 promoter (GFP fluorescence), CMV promoter (RFP fluorescence) values. In addition, the cells were labelled with live-dead marker for assessing cell viability status by flow cytometry. Cycloheximide (CHX) serves as positive control and DMSO serves as negative controls. Effective Concentration (EC50) values for coronin 1 promoter inhibition via GFP fluorescence analysis, non-specific promoter inhibition via CMV promoter driven-RFP fluorescence analysis and cell viability via live/dead staining as a measure for toxicity in flow cytometry for compounds (10-22 and 50a-65a) are shown in Table 6 and Table 7. Based on the EC50 analysis of the inhibition of coronin 1 promoter driven GFP fluorescence the (4S,7R)-configurated eutomers were identified (Structures FIG. 9A-C). This is exemplified for compounds containing two stereocenters by eutomers 11c and 13a. […] Subsequent EC50 evaluations (Table 7) were performed with compound 13a as standard for relative potency normalized to a value of 1.00 (relative potency calculated as [EC50 GFP inhibition 13a]/[EC50 GFP inhibition compound of interest]).

coronin 1 = assay: Western blotting of coronin 1 protein levels in RBL cells; assay type: cell-based, Rat; details: 2 μg/ml, RBL cells
Protocol: buffer with 0.2% SDS containing protease and phosphatase inhibitors (Roche) at 4° C., followed by protein determination (BCA, Pierce) and SDS-PAGE with equal protein amounts transferred onto nitrocellulose and probed using antibodies against the indicated proteins (actin and coronin 1) followed by HRP-labeled secondary antibodies and developed using an enhanced chemi-luminescence imager (Fuji) (FIG. 3C).

BRD3 = biological target: T3, BRD3 (Rattus norvegicus, UniProt D3ZWU1); assay: Thermal Proteome Profiling in RBL cells: BRD3; assay type: binding; details: 6 μM
T3 construct: endogenous in cells; host or cells: RBL (rat basophil leukemia) cells
T3 sequence (D3ZWU1 1-725): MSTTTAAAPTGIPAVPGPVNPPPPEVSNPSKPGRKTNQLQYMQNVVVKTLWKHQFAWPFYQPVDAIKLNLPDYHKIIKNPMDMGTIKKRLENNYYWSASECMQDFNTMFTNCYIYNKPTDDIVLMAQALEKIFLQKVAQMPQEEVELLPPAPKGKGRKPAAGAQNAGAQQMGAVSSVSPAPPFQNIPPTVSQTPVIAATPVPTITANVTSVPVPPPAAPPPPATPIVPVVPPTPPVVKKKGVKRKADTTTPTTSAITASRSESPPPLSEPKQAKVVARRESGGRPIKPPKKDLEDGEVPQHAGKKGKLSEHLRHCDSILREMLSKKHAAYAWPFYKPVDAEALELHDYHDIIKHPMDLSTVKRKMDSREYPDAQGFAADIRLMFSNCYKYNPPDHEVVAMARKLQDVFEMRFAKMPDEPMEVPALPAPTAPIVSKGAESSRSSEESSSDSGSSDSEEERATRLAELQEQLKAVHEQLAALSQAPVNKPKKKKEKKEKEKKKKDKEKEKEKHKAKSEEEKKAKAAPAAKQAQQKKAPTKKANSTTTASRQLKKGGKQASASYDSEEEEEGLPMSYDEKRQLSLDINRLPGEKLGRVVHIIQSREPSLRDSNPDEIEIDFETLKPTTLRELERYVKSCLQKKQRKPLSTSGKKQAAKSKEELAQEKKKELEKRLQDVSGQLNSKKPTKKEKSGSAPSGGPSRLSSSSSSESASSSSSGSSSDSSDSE
Protocol: To identify the target of the coronin 1 modulatory compounds, Thermal Proteome Profiling (TPP), a methodology based on the property of proteins to alter their thermal stability upon interactions with small molecules (Savitski, M. M., et al., Science, 2014. 346(6205): p. 1255784), was employed. To that end, Rat Basophil Leukemia (RBL) cells were incubated with the compound 12e followed by gradient thermal denaturation (37/41/44/47/50/53/56/59/63/67 degree C.) and mass spectrometric assessment of proteins that get either stabilized or destabilized upon interacting with the compound performed. […]
Thermal proteome profiling was performed as described (Savitski, M. M., et al., Science, 2014. 346(6205): p. 1255784). In brief, RBL cells (50 millions/condition) were incubated with the vehicle DMSO or the compound 12e at 6, 3 or 0 μM concentration for a period of 1 h at the end of which, the cells were washed in ice cold PBS, counted and subjected to thermal denaturation (37/41/44/47/50/53/56/59/63/67° C.) for 3 minutes, lysed by freeze thawing in liquid nitrogen and supernatant containing the soluble proteins separated by centrifugation at 100,000 g for 30 minutes. Equal volumes of the supernatant were taken, subjected to tryptic digestion and labelling with 10 plex-TMT (Thermo Fisher) and the labelled peptides analyzed and quantitated using mass spectrometry (FIG. 13).

[2] = system: human peripheral blood mononuclear cells; assay: Mixed Lymphocyte Reaction, tritiated-thymidine uptake; assay type: cell-based; details: human PBMCs
Protocol: For assessment of the suppression of alloresponses by coronin 1 modulators using the MLR methodology, heparinized or EDTA treated blood or buffy coat from two healthy volunteers were enriched for […] using the standard Histopaque 1.077 gradient centrifugation methodology as detailed above. Post enrichment, one of the donors PBMCs was considered as “responders” and the other as “stimulators”. The “stimulators” were treated with mitomycin to prevent proliferation while the “responders” PBMCs were left untreated. The stimulator and responder PBMCs were washed extensively with plain RPMI and subsequently counted and seeded in 96 well plate at a density of 0.1 million cells/well each (responders plus stimulators=0.2 million cells/well) in a volume of 200 μl RPMI-1640 (Sigma) containing 1× penicillin and streptomycin (Gibco), 2 mM L-glutamine (Gibco) and 10% heat inactivated FCS (PAA) along with the vehicle (DMSO) or coronin 1 expression inhibitor at indicated concentrations. Cells were incubated in a 37° C. humidified incubator with a 5% CO2 for five days with the expression inhibitor and at the end of which 0.5 μCi of tritiated thymidine was added to all wells and further incubated for 20 h followed by harvesting on a GF/C filter and measuring the DNA-incorporated counts using a Packard instrument as a measure of immune responses (FIG. 10).

T1 sequence (Q15059 306-415 limits assumed): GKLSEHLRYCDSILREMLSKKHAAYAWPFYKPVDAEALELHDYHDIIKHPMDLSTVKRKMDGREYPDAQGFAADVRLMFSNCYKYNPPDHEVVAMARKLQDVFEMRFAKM

increase of thermal denaturation of BRD3 (BRD3) | Compound | Kd (BRD3 BD2) | relative affinity for BRD3 bromodomains BD1 and BD2 (BRD3 BD2) | Kd (BRD3 BD1) | disease score (erythema, surface area affected, psoriatic plaque formation) [1] | EC50 (RBL cells) | EC50 (coronin 1 promoter) | rel. potency GFP inhibition (coronin 1 promoter; [EC50 GFP inhibition 13a]/[EC50 GFP inhibition compound of interest], 13a = 1.00) | EC50 (CMV promoter) | coronin 1 depletion by Western blot (coronin 1) | Mixed Lymphocyte Responses (tritiated-thymidine uptake) [2]
 | COc1ccccc1[C@H]1CC(=O)C2=C(C1)NC(C)=C(C(=O)OC1CCOCC1)[C@H]2c1cccc(O)c1 [13a, tetrahydro-2H-pyran-4-yl (4S, 7R)-4-(3-hydroxyphenyl)-7-(2-methoxyphenyl)-2-methyl-5-oxo-1,4,5,6,7,8-hexahydro-3-quinolinecarboxylate] | 4 nM | higher affinity for the BD2 domain | 150 nM | suppresses autoimmune-inflammatory disease severity | > 2500 nM | 65 nM | 1.00 | > 2500 nM | showed coronin 1 depletion | 
over four degrees Celsius | COc1ccccc1[C@H]1CC(=O)C2=C(C1)NC(C)=C(C(=O)OC[C@@H]1CCCO1)[C@H]2c1cccc(O)c1 [12e, tetrahydro-2-furanylmethyl (4S, 7R)-4-(3-hydroxyphenyl)-7-(2-methoxyphenyl)-2-methyl-5-oxo-1,4,5,6,7,8-hexahydro-3-quinolinecarboxylate] | ~10 nM | higher affinity for the BD2 domain | ~200 nM |  | > 20000 nM | 70 nM |  |  | showed coronin 1 depletion | inhibition
